# Structures can show the parent of a compound that is named as a salt.
# System: adult male Lister hooded rats
# Test: Novel object discrimination (NOD) test, 4 h inter-trial interval
# Type: in vivo, rat
# Settings: FIG. 1; for effect in the NOD test: 4 h ITI, each amount given by itself or both amounts combined
# Method: II) Behavioural Assessment of Cognitive Effects of Compounds with 5-HT6 Receptor Affinity: Novel Object Discrimination (NOD)
# Two separate groups of 12 adult male Lister hooded rats are tested in the NOD paradigm using 4 h inter-trial interval (ITI) delay between the familiarisation and choice trials which should ensure impaired discrimination and permit the pro-cognitive effects of the compounds to be evaluated.
# In two separate groups of animals compound [1140] (6-chloro-N-(3-(2-(dimethylamino)ethyl)-1H-indol-5-yl)imidazo[2,1-b]thiazole-5-sulfonamide) and donepezil HCl (or vehicle) were administered on four separate occasions, at seven day intervals. The semi-randomised design for drug administration ensures that for each group, each animal receives one of the four treatment combinations once during the study: compound [1140] and donepezil HCl, compound [1140] and vehicle, donepezil HCl and vehicle, vehicle and vehicle. […] Drug pre-treatment occurred 20 min prior to the first NOD trial to ensure optimal drug plasma levels during acquisition and consolidation phases.
# To maximise the opportunity to see a synergistic effect, the animals received one dose of donepezil HCl i.p. (0.05 mg/kg for group 1 and 0.1 mg/kg for group 2) in combination with the selected dose of compound [1140] (1 mg/kg) or the vehicle (saline containing 0.5 methylcellulose, 2 ml/kg).
# The exact experimental protocol is outlined in detail in:
# M. V. King et al, 5-HT6 receptor antagonist reverse delay-dependent deficits in novel object discrimination by enhancing consolidation—an effect sensitive to NMDA receptor antagonism, Neuropharmacology 2004, 47, 195-204 and Woolley et al. Reversal of cholinergic-induced deficit in a rodent model of recognition memory by the selective 5-HT6 receptor antagonist, Ro 04-6790; Psychopharmacology 2003, 170, 358-367.
# The behavioural assessment of cognitive effects of compounds with 5-HT6 receptor affinity with the novel object discrimination (NOD) test was carried out as described above.
# The results are depicted in FIG. 1. […]
SMILES,effect in the NOD test,potentiation of the action of compound [1140] in the NOD test (donepezil given with compound [1140])
"CN(C)CCc1c[nH]c2ccc(NS(=O)(=O)c3c(Cl)nc4sccn34)cc12 [compound [1140], 6-chloro-N-(3-(2-(dimethylamino)ethyl)-1H-indol-5-yl)imidazo[2,1-b]thiazole-5-sulfonamide]",does not have any effect,
COc1cc2c(cc1OC)C(=O)C(CC1CCN(Cc3ccccc3)CC1)C2 (stereo not drawn) [donepezil hydrochloride],does not have any effect,potentiates the action
